Here are results for three compounds from ChEMBL document CHEMBL5241074, “Dual-target compounds for Alzheimer's disease: Natural and synthetic AChE and BACE-1 dual-inhibitors and their structure-activity relationship (SAR)” (Eur J Med Chem, 2021).

For experiment [1], the target named is T1, Acetylcholinesterase (Homo sapiens, UniProt P22303). The experiment can be described thus: Inhibition of AChE (unknown origin) at 100 uM relative to control.
The target of experiment [2] is T2, Beta-secretase 1 (Homo sapiens, UniProt P56817). Briefly: Inhibition of BACE1 (unknown origin) at 100 uM relative to control.
In experiment [3] the target is T1, Acetylcholinesterase. Briefly: Inhibition of human recombinant AchE.
In experiment [4] the target is Acetylcholinesterase (Electrophorus electricus, UniProt O42275). Briefly: Inhibition of Electrophorus electricus AchE.
Experiment [5] has as its target T2, Beta-secretase 1. Briefly: Inhibition of human recombinant BACE1.

T2 sequence (P56817 whole entry): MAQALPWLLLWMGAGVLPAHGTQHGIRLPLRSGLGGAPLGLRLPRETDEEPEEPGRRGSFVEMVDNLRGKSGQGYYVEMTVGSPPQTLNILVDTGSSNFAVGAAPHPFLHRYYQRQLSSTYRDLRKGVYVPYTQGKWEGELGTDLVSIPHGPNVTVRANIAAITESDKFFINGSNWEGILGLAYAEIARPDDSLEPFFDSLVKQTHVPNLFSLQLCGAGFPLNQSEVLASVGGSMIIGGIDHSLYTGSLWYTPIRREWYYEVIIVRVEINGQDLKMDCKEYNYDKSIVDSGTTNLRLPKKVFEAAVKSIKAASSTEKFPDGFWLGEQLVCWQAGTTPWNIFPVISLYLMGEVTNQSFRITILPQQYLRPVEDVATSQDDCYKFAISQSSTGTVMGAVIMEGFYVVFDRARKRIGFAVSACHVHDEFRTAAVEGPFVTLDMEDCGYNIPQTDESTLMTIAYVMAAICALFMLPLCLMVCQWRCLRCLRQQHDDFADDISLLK
T1 sequence (P22303 whole entry): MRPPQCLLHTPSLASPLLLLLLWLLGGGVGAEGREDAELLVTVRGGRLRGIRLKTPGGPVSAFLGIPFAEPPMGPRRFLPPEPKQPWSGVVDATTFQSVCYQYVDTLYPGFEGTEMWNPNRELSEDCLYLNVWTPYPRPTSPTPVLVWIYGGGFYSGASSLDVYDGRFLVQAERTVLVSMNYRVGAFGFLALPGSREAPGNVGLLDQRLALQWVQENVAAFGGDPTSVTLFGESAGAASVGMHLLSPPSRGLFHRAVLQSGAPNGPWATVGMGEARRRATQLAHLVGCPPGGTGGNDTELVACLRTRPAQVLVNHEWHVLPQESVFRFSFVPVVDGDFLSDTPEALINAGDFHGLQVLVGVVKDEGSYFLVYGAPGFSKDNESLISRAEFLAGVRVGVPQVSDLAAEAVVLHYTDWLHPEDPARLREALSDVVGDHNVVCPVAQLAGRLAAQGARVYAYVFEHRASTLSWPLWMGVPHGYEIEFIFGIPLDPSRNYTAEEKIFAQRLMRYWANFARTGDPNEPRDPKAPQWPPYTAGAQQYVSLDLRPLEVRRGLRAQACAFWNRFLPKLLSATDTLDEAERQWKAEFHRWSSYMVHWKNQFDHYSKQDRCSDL
Sequence of Acetylcholinesterase (Electrophorus electricus, UniProt O42275) (O42275 whole entry): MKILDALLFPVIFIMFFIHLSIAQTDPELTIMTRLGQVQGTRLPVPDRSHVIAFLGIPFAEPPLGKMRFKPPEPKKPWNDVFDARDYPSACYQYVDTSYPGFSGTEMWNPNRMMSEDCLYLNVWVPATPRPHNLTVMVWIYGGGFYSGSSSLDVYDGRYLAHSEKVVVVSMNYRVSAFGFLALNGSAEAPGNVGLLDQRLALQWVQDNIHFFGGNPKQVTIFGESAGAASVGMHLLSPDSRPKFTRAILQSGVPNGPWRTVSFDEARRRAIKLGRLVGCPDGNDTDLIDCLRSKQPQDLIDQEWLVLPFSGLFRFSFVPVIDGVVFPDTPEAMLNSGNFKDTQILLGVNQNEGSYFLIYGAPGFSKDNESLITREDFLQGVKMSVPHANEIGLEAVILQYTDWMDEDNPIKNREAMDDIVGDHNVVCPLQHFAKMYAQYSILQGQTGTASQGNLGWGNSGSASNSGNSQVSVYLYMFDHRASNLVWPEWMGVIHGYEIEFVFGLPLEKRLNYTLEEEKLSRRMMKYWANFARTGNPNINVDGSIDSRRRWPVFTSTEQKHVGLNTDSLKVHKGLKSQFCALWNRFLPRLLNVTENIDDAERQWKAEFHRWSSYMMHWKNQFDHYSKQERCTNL

For `COc1cc(O)c(C(=O)/C=C/c2ccc(O)cc2)cc1CC=C(C)C`, the inhibition stood at 46% against Acetylcholinesterase [1] and 68% against Beta-secretase 1 [2].

Turning to `CCCCCCCCCCCC1=CC(=O)C=CC1=O`, the values for the IC50 on Acetylcholinesterase [3], against Acetylcholinesterase [4] and on Beta-secretase 1 [5] were 7.91 µM, 2500 nM and 2110 nM, respectively.

As to `COc1cc2c(cc1CC=C(C)C)C(=O)CC(c1ccc(O)cc1)O2` (configuration not stated), the inhibition on Acetylcholinesterase [1] came out at 80%; at Beta-secretase 1 [2] it was 20%.

The term inhibition denotes the share of the control response that was lost under treatment. One may read the IC50 as the point on the concentration scale where inhibition reaches its midpoint.
